Several values for one entry are separate records, joined by “and”; a condition that tells them apart may be missing. Identical values can stand only once.
Columns and labels:
[1] = test system: NCI-H23 lung adenocarcinoma (LUAD) cells; assay: Spheroid growth inhibition (SGI) assay, NCI-H23; format: cell-based; settings: NCI-H23 spheroids; 30 nM palbociclib, 300 nM PF-07220060, 300 nM PF-07104091; 14 days
Experimental: NCI-H1792 and NCI-H23 lung adenocarcinoma (LUAD) cells lines were obtained from ATCC and maintained in RPMI 1640 medium supplemented with 10% fetal bovine serum and penicillin-streptomycin as per ATCC guidelines. Cells were maintained in humidified incubator at 37° C. with 5% CO2.
Spheroid assays were performed in 96 well ultralow attachment plates (ULA-96U) from Nexcelom & Thermo Fisher Scientific. […] To aid spheroid formation, dispensed cells were centrifuged at 220×g for 6 minutes in the ultralow attachment plates and allowed to form compact spheroids for 4 days prior to the initiation of treatment. […] DMSO (0.01%) was used as the vehicle control. DMSO and all compounds were diluted in cell medium. Medium and compounds were replenished twice per week, with 3 and 4-day intervals. Replenishment was executed by aspirating 150 μL of medium per well without disturbing the spheroid and then adding the same volume of premixed medium/compound solution to spheroids. Spheroid diameter was quantified immediately following each medium change twice a week (on every 3rd or 4th day) throughout the duration of the assay.
Average diameters of tumor spheroids were plotted in GraphPad Prism 8 and the AUC calculated. AUC baseline was determined by the average tumor spheroid diameter at Day 0 in the vehicle (DMSO) controls. Spheroid growth inhibition, or SGI, was calculated as follows: SGI=(1−AUC treatment/AUC DMSO)×100%. SGI for all treatment arms was derived at the timepoint when the vehicle (DMSO) treated spheroids reach their maximal diameter (usually close to 1 mm but this can differ among cell lines); this corresponds to the last time point taken for the vehicle (DMSO) treated spheroids. SEM was calculated based on n=10 to 12 wells per test group.
Growth of lung adenocarcinoma multicellular tumor spheroids (MCTS) was monitored over time to assess: (i) amplitude of response (SGI) and (ii) duration of response to the CDK4 inhibitor PF-07220060 as a single agent, and in combination with the CDK2 inhibitor PF-07104091.

T47D breast cancer model = assay: In vivo efficacy, HR+/HER2− T47D breast cancer model (Example 3); set-up: species or system NSG mice; settings: Day 41, PO BID: PF-07104091 150 mpk, PF-07220060 60 mpk, palbociclib 10 mpk
Experimental: (§1) Female NSG mice (Jackson Lab) were subcutaneously implanted with fragment (27 mm^3 to 64 mm^3 size) into the dorsal region. All mice for T47D, HCC1428 and ST941 PBR studies were supplemented with 8.5 μg/mL estradiol water (β-Estradiol Sigma-Aldrich, cat #E2758-5G) and gave ad libitum till end of study. For the in vivo efficacy studies, tumor volume and body weights were measured twice a week. Tumor volume was calculated using the [(Length×Width×Width)/2)] formula. TGI was calculated as 100*(1−ΔT/ΔC). The ΔC (ΔT) was obtained by subtracting the mean tumor burden in the vehicle (treated) group on the first day of treatment (Day 0) from the mean tumor burden in vehicle (treated) group on the assessment day. Statistical analysis was performed using ANCOVA when the mean tumor volume in vehicle treated mice reached tumor cutoff size.
The T47D model was established by implanting passage 3 tumor fragments into recipient mice. To establish the T47D donor mice, tumor cells (5×10^6 cell/mouse with 50% Cultrex® Basement Membrane Matrix) were subcutaneously implanted in female NSG mice. Once reaching a range of 700 to 800 mm^3, donor tumors were subsequently transplanted into secondary recipient mice for a study expansion. […] PF-07104091 (lot 016), PF-07220060 (lot 019) and PD-0332991 (lot GR08498) were administered (PO.) BID (7 hr apart). All mice received treatment continuously until Day 41. TGI was assessed on Day 41 post first dose.

ST941 PBR PDX model = assay: In vivo efficacy, palbociclib-resistant ST941 PBR PDX model (Example 3); set-up: species or system NSG mice; settings: ST941PBR, Day 28; PO BID: PF-07104091 150 mpk, PF-07220060 60 mpk, palbociclib 10 mpk; fulvestrant 10 mpk SC 2x week 1 then weekly
Experimental: as §1
We established model in house by continuous treatment of the ST941 PBR tumor bearing mice with PD-0332991 at 50 mg/kg, PO QD plus fulvestrant at 10 mg/kg, SC twice in the first week, then weekly thereafter. To propagate donors for the TGI study, tumors were transplanted to recipient mice. One week after the re-implantation, the recipient mice received continuous treatment with palbociclib plus fulvestrant (dosing schedule described above). After 1 to 2 serial in vivo propagation with the same treatment regimen, the resistant tumors in the range of 700 to 800 mm^3 were re-implanted for a study expansion. The remaining tumor fragments were viably frozen for future use.
The live donor mice were established by implanting ST941 PBR (p11) tumor fragments. Once reaching a range of 700 to 800 mm^3, the donor tumors were subsequently transplanted into secondary recipient mice for a study expansion. To maintain the resistant clones, the ST941 PBR tumor bearing mice were treated with PD-0332991 at 50 mg/kg, PO. QD plus fulvestrant at 10 mg/kg, SC twice in the first week, then weekly afterwards for 10 weeks. The treatment was initiated one week after the implant until day of randomization for study enrollment. […] TGI was assessed on Day 28 post first dose.

NCI-H2347 = assay: Combinatorial activity in LUAD cell line NCI-H2347; format: cell-based; settings: Homo sapiens; NCI-H2347, KRAS L19F; single agent; read-out: (nM) s.a.
Experimental: (§2) Combinatorial activity of PF-07104091 and PF-07220060 was assessed in LUADs as single agents (s.a.) or in combination.

A549 = assay: Combinatorial activity in LUAD cell line A549; format: cell-based; settings: Homo sapiens; A549, WT; single agent; read-out: (nM) s.a.
Experimental: as §2

HCC2935 = assay: Combinatorial activity in LUAD cell line HCC2935; format: cell-based; settings: Homo sapiens; HCC2935, WT; single agent; read-out: (nM) s.a.
Experimental: as §2

Row | IC50 (NCI-H2347) | IC50 (A549) | IC50 (HCC2935) | SMILES | SGI (%) [1] | TGI % (T47D breast cancer model) | TGI % (ST941 PBR PDX model)
1 | 70 nM | 814 nM | 141 nM | CC(C)n1c(C(C)(C)O)nc2c(F)cc(-c3nc(N[C@@H]4CCOC[C@H]4O)ncc3Cl)cc21 [PF-07220060, 1,5-anhydro-3-({5-chloro-4-[4-fluoro-2-(2-hydroxypropan-2-yl)-1-(propan-2-yl)-1H-benzimidazol-6-yl]pyrimidin-2-yl}amino)-2,3-dideoxy-D-threo-pentitol] | 35% | 73% | 28%
2 | 364 nM | 574 nM | 280 nM | COCc1cc(C(=O)Nc2cc([C@H]3CC[C@@H](OC(=O)NC(C)C)C3)[nH]n2)n(C)n1 [PF-07104091, (1R,3S)-3-[3-({[3-(methoxymethyl)-1-methyl-1H-pyrazol-5-yl]carbonyl}amino)-1H-pyrazol-5-yl]cyclopentyl propan-2-ylcarbamate] | 9% | 82% | 34% and 24^* %

Reference: patent US20250041277A1, “METHODS AND DOSING REGIMENS COMPRISING A CDK2 INHIBITOR AND A CDK4 INHIBITOR FOR TREATING CANCER” (PFIZER INC., priority 2021, published 2025)
